Each molecule was assayed against Sodium-dependent serotonin transporter (Homo sapiens, UniProt P31645) (assay: Displacement of [3H]5-HT from human SERT).
Sequence of Sodium-dependent serotonin transporter (Homo sapiens, UniProt P31645) (P31645 whole entry): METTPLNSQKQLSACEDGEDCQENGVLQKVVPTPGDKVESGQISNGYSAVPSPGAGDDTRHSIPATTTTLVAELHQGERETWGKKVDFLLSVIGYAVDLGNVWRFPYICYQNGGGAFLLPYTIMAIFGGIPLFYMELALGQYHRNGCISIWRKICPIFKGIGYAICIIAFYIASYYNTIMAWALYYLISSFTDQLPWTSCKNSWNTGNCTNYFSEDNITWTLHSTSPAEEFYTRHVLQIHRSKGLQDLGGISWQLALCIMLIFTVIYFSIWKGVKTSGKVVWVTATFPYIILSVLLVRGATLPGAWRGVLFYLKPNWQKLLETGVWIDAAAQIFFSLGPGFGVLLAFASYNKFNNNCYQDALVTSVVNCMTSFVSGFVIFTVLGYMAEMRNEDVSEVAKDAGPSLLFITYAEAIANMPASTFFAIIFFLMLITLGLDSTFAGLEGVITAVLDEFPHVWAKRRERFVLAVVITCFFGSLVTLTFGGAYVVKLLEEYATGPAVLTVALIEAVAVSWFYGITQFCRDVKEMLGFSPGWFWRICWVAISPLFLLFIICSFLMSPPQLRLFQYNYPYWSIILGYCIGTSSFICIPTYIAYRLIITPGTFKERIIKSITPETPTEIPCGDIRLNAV

SMILES	IC50
CC1CN(c2ccc3ccccc3n2)CCN1CCCCN1C(=O)CCCC1=O (stereo not drawn)	50 nM
CC1CN(c2ccc3ccccc3n2)CCN1CCCN1C(=O)c2ccccc2C1=O (stereo not drawn)	80 nM
CC1CN(c2ccc3ccccc3n2)CCN1CCCCN1C(=O)c2ccccc2C1=O (stereo not drawn)	8 nM

Each molecule was assayed against Sodium-dependent serotonin transporter (Rattus norvegicus, UniProt P31652) (assay: Displacement of [3H]5-HT from SERT in rat cerebral cortex synaptosome membrane).
Assay type: tissue-based, Brain

Sequence of Sodium-dependent serotonin transporter (Rattus norvegicus, UniProt P31652) (P31652 whole entry): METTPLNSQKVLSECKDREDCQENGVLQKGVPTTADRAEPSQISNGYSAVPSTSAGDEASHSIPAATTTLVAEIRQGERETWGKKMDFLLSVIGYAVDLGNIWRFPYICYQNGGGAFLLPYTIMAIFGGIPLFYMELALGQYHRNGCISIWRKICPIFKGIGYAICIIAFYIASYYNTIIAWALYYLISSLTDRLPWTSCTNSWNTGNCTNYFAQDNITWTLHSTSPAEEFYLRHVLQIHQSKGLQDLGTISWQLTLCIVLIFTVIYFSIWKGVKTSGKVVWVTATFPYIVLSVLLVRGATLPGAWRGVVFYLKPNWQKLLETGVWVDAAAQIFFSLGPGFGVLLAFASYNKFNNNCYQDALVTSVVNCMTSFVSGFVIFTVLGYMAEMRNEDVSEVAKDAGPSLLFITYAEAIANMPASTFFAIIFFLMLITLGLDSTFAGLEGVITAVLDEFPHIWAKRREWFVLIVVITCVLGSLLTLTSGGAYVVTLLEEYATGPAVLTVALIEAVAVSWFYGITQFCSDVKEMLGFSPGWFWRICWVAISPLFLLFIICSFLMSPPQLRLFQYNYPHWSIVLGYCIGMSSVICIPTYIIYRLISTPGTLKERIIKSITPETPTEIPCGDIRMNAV

SMILES	IC50
CC1CN(c2ccc3ccccc3n2)CCN1CCCCN1C(=O)CC2(CCCC2)CC1=O (stereo not drawn)	75 nM
CC1CN(c2ccc3ccccc3n2)CCN1CCCCN1C(=O)c2ccccc2C1=O (stereo not drawn)	33 nM

Next, values leading:

IC50	SMILES
95 nM	O=C1c2ccccc2C(=O)N1CCCCN1CCN(c2ccc3ccccc3n2)CC1
112 nM	O=C1CC2(CCCC2)CC(=O)N1CCCCN1CCN(c2ccc3ccccc3n2)CC1
146 nM	CC1(C)CC(=O)N(CCCCN2CCN(c3ccc4ccccc4n3)CC2)C(=O)C1

— ChEMBL document CHEMBL1142451, “The molecular interactions of buspirone analogues with the serotonin transporter” (Bioorg Med Chem, 2008)
